Laboratory results published in publication PMC11396129, “Oxindole–benzothiazole hybrids as CDK2 inhibitors and anticancer agents: design, synthesis and biological evaluation” (BMC Chemistry, 2024).

Tests used:
Type in all cases: cell-based, human
[1] = system: NCI 60 cancer cell line panel; assay: NCI 60 panel growth inhibition (SRB), whole panel; settings: mean over NCI 60 panel, 10 μM
In short: (§1)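 Seeding 5000–40,000 cells/well per doubling time; Tz plates TCA-fixed at 24 h. Five concentrations, 10-fold or ½ log steps, from DMSO concentrate at 400× top dose. Dose-response parameters incl. TGI; values beyond range given as > or < tested limits.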

HCT-116 = assay: NCI 60 panel growth inhibition (SRB), colon cancer; settings: HCT-116, 10 μM
In short: as §1

KM12 = assay: NCI 60 panel growth inhibition (SRB), colon cancer; settings: KM12, 10 μM
In short: as §1

HCT-15 = assay: NCI 60 panel growth inhibition (SRB), colon cancer; settings: HCT-15, 10 μM
In short: as §1

HCC-2998 = assay: NCI 60 panel growth inhibition (SRB), colon cancer; settings: HCC-2998, 10 μM
In short: as §1

SW-620 = assay: NCI 60 panel growth inhibition (SRB), colon cancer; settings: SW-620, 10 μM
In short: as §1

COLO 205 = assay: NCI 60 panel growth inhibition (SRB), colon cancer; settings: COLO 205, 10 μM
In short: as §1

BT-549 = assay: NCI 60 panel growth inhibition (SRB), breast cancer; settings: BT-549, 10 μM
In short: as §1

MDA-MB-468 = assay: as above; settings: MDA-MB-468, 10 μM
In short: as §1

MDA-MB-231/ATCC = assay: as above; settings: 10 μM
In short: as §1

T-47D = assay: as above; settings: 10 μM
In short: as §1

MCF7 = assay: as above; settings: MCF7, 10 μM
In short: as §1

HS 578T = assay: as above; settings: 10 μM
In short: as §1

SNB-19 = assay: NCI 60 panel growth inhibition (SRB), CNS cancer; settings: SNB-19, 10 μM
In short: as §1

SF-295 = assay: NCI 60 panel growth inhibition (SRB), CNS cancer; settings: SF-295, 10 μM
In short: as §1

SF-539 = assay: NCI 60 panel growth inhibition (SRB), CNS cancer; settings: SF-539, 10 μM
In short: as §1

SNB-75 = assay: NCI 60 panel growth inhibition (SRB), CNS cancer; settings: SNB-75, 10 μM
In short: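 Selected compounds progressed from a single-dose mean-graph screen to five-concentration testing. Percentage growth, with negative values indicating cell kill below Tz, was computed per level, giving TGI among three parameters.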

SF-268 = assay: NCI 60 panel growth inhibition (SRB), CNS cancer; settings: SF-268, 10 μM
In short: as §1

ACHN = assay: NCI 60 panel growth inhibition (SRB), renal cancer; settings: 10 μM
In short: as §1

SN12C = assay: NCI 60 panel growth inhibition (SRB), renal cancer; settings: 10 μM
In short: as §1

786-0 = assay: NCI 60 panel growth inhibition (SRB), renal cancer; settings: 786-0, 10 μM
In short: as §1

A498 = assay: NCI 60 panel growth inhibition (SRB), renal cancer; settings: A498, 10 μM
In short: as §1

CAKI-1 = assay: NCI 60 panel growth inhibition (SRB), renal cancer; settings: CAKI-1, 10 μM
In short: as §1

TK-10 = assay: NCI 60 panel growth inhibition (SRB), renal cancer; settings: TK-10, 10 μM
In short: as §1

RXF 393 = assay: NCI 60 panel growth inhibition (SRB), renal cancer; settings: RXF 393, 10 μM
In short: as §1

UO-31 = assay: NCI 60 panel growth inhibition (SRB), renal cancer; settings: UO-31, 10 μM
In short: as §1

UACC-62 = assay: NCI 60 panel growth inhibition (SRB), melanoma; settings: UACC-62, 10 μM
In short: as §1

LOX IMVI = assay: NCI 60 panel growth inhibition (SRB), melanoma; settings: 10 μM
In short: as §1

MDA-MB-435 = assay: NCI 60 panel growth inhibition (SRB), melanoma; settings: MDA-MB-435, 10 μM
In short: as §1

SK-MEL-5 = assay: NCI 60 panel growth inhibition (SRB), melanoma; settings: SK-MEL-5, 10 μM
In short: as §1

SK-MEL-28 = assay: NCI 60 panel growth inhibition (SRB), melanoma; settings: SK-MEL-28, 10 μM
In short: as §1

UACC-257 = assay: NCI 60 panel growth inhibition (SRB), melanoma; settings: UACC-257, 10 μM
In short: as §1

M14 = assay: NCI 60 panel growth inhibition (SRB), melanoma; settings: M14, 10 μM
In short: as §1

MALME-3M = assay: NCI 60 panel growth inhibition (SRB), melanoma; settings: 10 μM
In short: as §1

SMILES | Mean GI% [1] | GI% (HCT-116) [%] | GI% (KM12) [%] | GI% (HCT-15) [%] | GI% (HCC-2998) | GI% (SW-620) | GI% (COLO 205) | GI% (BT-549) | GI% (MDA-MB-468) [%] | GI% (MDA-MB-231/ATCC) [%] | GI% (T-47D) | GI% (MCF7) [%] | GI% (HS 578T) | GI% (SNB-19) | GI% (SF-295) [%] | GI% (SF-539) | GI% (SNB-75) | GI% (SF-268) | GI% (ACHN) [%] | GI% (SN12C) [%] | further results
COc1cccc(-c2nc3ccccc3s2)c1OCC(=O)NN=C1C(=O)Nc2ccc(C)cc21 [Compound 9h, 2-(2-(Benzo[d]thiazol-2-yl)-6-methoxyphenoxy)-N′-(5-methyl-2-oxoindolin-3-ylidene)acetohydrazide] | 9.27% | 22.91 | 8.90 | 5.56 | – (GI% < 5%) | – (GI% < 5%) | 7.03% | 18.44% | 26.10 | 13.89 | 41.06% | 37.74 | 9.01% | 8.33% | 19.06 | 9.04% | – (GI% < 5%) | – (GI% < 5%) | 11.83 | 9.88 | GI% (786-0): 9.21%; GI% (A498): – (GI% < 5%); GI% (CAKI-1): 36.68%; GI% (TK-10): – (GI% < 5%); GI% (RXF 393): 25.38%; GI% (UO-31): 38.34%; GI% (UACC-62): 34.75%; GI% (LOX IMVI): – (GI% < 5%); GI% (MDA-MB-435): – (GI% < 5%); GI% (SK-MEL-5): 62.94%; GI% (SK-MEL-28): – (GI% < 5%); GI% (UACC-257): – (GI% < 5%); GI% (M14): 9.67%; GI% (MALME-3M): 16.42%
COc1cccc(-c2nc3ccccc3s2)c1OCC(=O)NN=C1C(=O)Nc2ccc([N+](=O)[O-])cc21 [Compound 9j, 2-(2-(Benzo[d]thiazol-2-yl)-6-methoxyphenoxy)-N′-(5-nitro-2-oxoindolin-3-ylidene)acetohydrazide] | – (GI% < 5%) | 7.08 | 5.79 | 5.47 | – (GI% < 5%) | – (GI% < 5%) | – (GI% < 5%) | – (GI% < 5%) | 6.21 | 8.73 | – (GI% < 5%) | 25.07 | – (GI% < 5%) | 5.77% | 11.71 | – (GI% < 5%) | – (GI% < 5%) | – (GI% < 5%) | 11.44 | 11.67 | GI% (786-0): – (GI% < 5%); GI% (A498): – (GI% < 5%); GI% (CAKI-1): 28.19%; GI% (TK-10): – (GI% < 5%); GI% (RXF 393): 9.05%; GI% (UO-31): 25.41%; GI% (UACC-62): 11.06%; GI% (LOX IMVI): – (GI% < 5%); GI% (MDA-MB-435): 6.00%; GI% (SK-MEL-5): 24.59%; GI% (SK-MEL-28): – (GI% < 5%); GI% (UACC-257): 5.08%; GI% (M14): 8.57%; GI% (MALME-3M): 12.74%
COc1cccc(-c2nc3ccccc3s2)c1OCC(=O)NN=C1C(=O)Nc2ccc(Br)cc21 [Compound 9l, 2-(2-(Benzo[d]thiazol-2-yl)-6-methoxyphenoxy)-N′-(5-bromo-2-oxoindolin-3-ylidene)acetohydrazide] | 12.52% | 7.62 | 12.55 | 21.00 | – (GI% < 5%) | – (GI% < 5%) | – (GI% < 5%) | – (GI% < 5%) | 19.79 | 27.34 | 41.03% | 35.92 | – (GI% < 5%) | – (GI% < 5%) | 33.14 | 9.75% | 10.42% | 8.60% | 22.74 | 16.14 | GI% (786-0): 16.93%; GI% (A498): – (GI% < 5%); GI% (CAKI-1): 40.19%; GI% (TK-10): – (GI% < 5%); GI% (RXF 393): 14.21%; GI% (UO-31): 30.14%; GI% (UACC-62): 35.62%; GI% (LOX IMVI): 19.74%; GI% (MDA-MB-435): 5.27%; GI% (SK-MEL-5): 19.70%; GI% (SK-MEL-28): – (GI% < 5%); GI% (UACC-257): – (GI% < 5%); GI% (M14): – (GI% < 5%); GI% (MALME-3M): 6.30%
Cc1ccc2c(c1)C(=NNC(=O)COc1ccccc1-c1nc3ccccc3s1)C(=O)N2 [Compound 9b, 2-(2-(Benzo[d]thiazol-2-yl)phenoxy)-N′-(5-methyl-2-oxoindolin-3-ylidene)acetohydrazide] | 44.28% | 53.56 | 18.69 | 31.29 | 19.53% | – (GI% < 5%) | – (GI% < 5%) | 50.79% | 90.93 | 63.76 | 48.54% | 64.25 | 58.35% | 74.25% | 44.34 | 76.88% | 54.28% | 43.82% | 52.92 | 61.93 | GI% (786-0): 57.65%; GI% (A498): 5.48%; GI% (CAKI-1): 41.90%; GI% (TK-10): 93.55%; GI% (RXF 393): 134.59%; GI% (UO-31): 27.53%; GI% (UACC-62): 33.71%; GI% (LOX IMVI): 84.01%; GI% (MDA-MB-435): 17.86%; GI% (SK-MEL-5): 62.70%; GI% (SK-MEL-28): – (GI% < 5%); GI% (UACC-257): – (GI% < 5%); GI% (M14): 11.64%; GI% (MALME-3M): 57.82%
